The source of these data is publication PMC5019375, “Characterization of Potent SMAC Mimetics that Sensitize Cancer Cells to TNF Family-Induced Apoptosis” (PLoS ONE, 2016).

“And” between values parts separate entries of the source, which are not always exact repeats. Equal entries are not always repeated. No end group written: not given here. Where only a bound is given, the exact number is not on record here.

The target in assay [1] is cIAP1-BIR2 (Homo sapiens, UniProt Q13490). Description: FP competition assay, displacement of SMAC-rhodamine.
Sequence of cIAP1-BIR2 (Q13490 144-260): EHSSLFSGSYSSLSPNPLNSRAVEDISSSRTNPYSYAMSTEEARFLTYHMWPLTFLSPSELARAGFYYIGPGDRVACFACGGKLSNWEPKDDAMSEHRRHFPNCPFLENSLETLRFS
Description: (§3) Solutions for assessing SMAC-rhodamine binding to various BIR domains were empirically optimized. […] For cIAP1-BIR3, the assay buffer was 25 mM Hepes [pH 7.5] containing 40 mM β-glycerol phosphate, 1 mM TCEP, and 0.005% Tween 20, typically with 20 nM SMAC-rhodamine. For cIAP1-BIR2, cIAP2-BIR2 and cIAP2-BIR3, assays were performed in 25 mM Hepes [pH 7.5] containing 1 mM TCEP and 0.005% Tween 20, typically with 20 nM SMAC-rhodamine.
(§4) For cIAP1-BIR2, assays were conducted using 25 mM Hepes [pH 7.5] containing 1 mM TCEP, 0.005% Tween 20, ~1 μM cIAP1-BIR2, and 20 nM SMAC-rhodamine. For cIAP1-BIR3, assays were performed using the same buffered solution, except 40 mM β-glycerol phosphate was added and the cIAP1-BIR3 concentration was reduced to 50 nM. For cIAP2-BIR2, assays included a buffer containing 25 mM Hepes [pH 7.5] containing 1 mM TCEP, 0.005% Tween 20, 1 μM cIAP2-BIR2, and 20 nM SMAC-rhodamine. […] IC50 values were determined with a nonlinear fit using Prism software. Ki values were determined from the IC50 values using an online program developed by Nikolovska-Coleska et al. [26].
For assay [2], the target named is cIAP2-BIR3 (Homo sapiens, UniProt Q13489). The assay is described as above.
Sequence of cIAP2-BIR3 (Q13489 243-333): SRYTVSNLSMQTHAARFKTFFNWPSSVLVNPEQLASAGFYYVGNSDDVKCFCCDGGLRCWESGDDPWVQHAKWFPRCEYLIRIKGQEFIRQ
Description: as §3, §4
The target in assay [3] is cIAP1-BIR3 (Homo sapiens, UniProt Q13490). The assay is described as above. The following applies: for binding affinity for cIAP1 and cIAP2 compared with XIAP: estimated by relative Ki values, cIAP1 and cIAP2 vs XIAP.
Sequence of cIAP1-BIR3 (Q13490 257-356): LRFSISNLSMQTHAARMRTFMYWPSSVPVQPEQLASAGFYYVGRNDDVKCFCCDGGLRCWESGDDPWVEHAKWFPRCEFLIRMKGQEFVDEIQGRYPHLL
Description: as §3, §4
For assay [4], the target named is cIAP2-BIR2 (Homo sapiens, UniProt Q13489). The assay is described as above.
Sequence of cIAP2-BIR2 (Q13489 129-246): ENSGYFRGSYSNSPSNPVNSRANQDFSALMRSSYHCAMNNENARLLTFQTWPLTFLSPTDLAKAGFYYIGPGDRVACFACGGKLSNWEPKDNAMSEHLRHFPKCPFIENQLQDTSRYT
Description: as §3, §4
Assay [5] concerns PC-3 prostate cancer cells. The assay is described as follows: Cytotoxicity assay, sensitization to LT-α (CellTiter-Glo). It counts as cell-based, human. The following applies: 24 h. The method, then: (§1) Cellular cytotoxicity experiments were conducted in white 96-well flat bottom plates (Greiner Bio-One #655074). PC-3 prostate cancer cells were seeded into microtiter wells in 90 μL RPMI medium with 10% fetal calf serum and antibiotics at 5,000 cells per well, and then incubated overnight at 37°C with 5% CO2/95% air. The next day, compounds diluted into the same culture medium and added in 10 μL aliquots to achieve various final concentrations, maintaining a uniform total volume per well. Either TNF (at 10 nM final) or LT-α (at ~90 pM final) resuspended in 10 μL of RPMI with 10% fetal calf serum and antibiotics was added to wells or an equal volume of medium was applied for the control well. The plates were then further incubated for 24 h. Subsequently, cell viability was assessed by the addition of 25 μL per well of Cell-Titer-Glo reagent (Promega, Inc). Plates were read using a Luminoskan Ascent luminometer.
(§2) The cellular activity of cIAP1 and cIAP2 inhibitors was evaluated through experiments where cytotoxicity of a human prostate tumor cell line (PC-3) was assessed in the presence or absence of cytokines TNF and LT-α. The experimental approach we used was to provide TNF or LT-α at a fixed concentration, which by itself was non-cytotoxic, then titrate SMAC mimetics into the cell cultures. […] The compound series described in this work has been tested against a broad range of cell lines (data not shown and [23]) and single agent toxicity was only observed for SKOV3 ovarian tumor cells. This agrees with the findings of Varfolomeev, Vince and Lalaoui, respectively.

Assay [6] concerns PC-3 prostate cancer cells. The assay is described as follows: Cytotoxicity assay, sensitization to TNF (CellTiter-Glo). The following applies: 10 nM TNF, 24 h. It counts as cell-based, human. The method, then: as §1, §2
A general note: In ATP-based viability assays light output follows the ATP content of the culture.

Setting [7] is: cIAP1 BIR3 Ki, 25 mM Hepes pH 7.5, 1 mM TCEP, 0.005% Tween 20, 20 nM SMAC-rhodamine, 40 mM β-glycerol phosphate, ~50 nM protein, Ki calculated from IC50.

Turning to `CN[C@@H](C)C(=O)N[C@H](C(=O)N1CCC[C@H]1C(=O)N[C@@H]1CCCc2ccccc21)C(C)C` [compound 1], the Ki in assay [1] is 0.84 µM; in assay [2] it was 0.04 ± 0.01 µM; in assay [3] (Ki against cIAP1-BIR3, FP assay), 0.024 ± 0.001 µM; in assay [3] (setting [7]), 0.02 µM; in assay [4], 2.34 µM. In addition, the “binding affinity for cIAP1 and cIAP2 compared with XIAP” value (“binding affinity … compared with XIAP” below) in assay [3] is “higher affinity binding to cIAP1 and cIAP2 than XIAP”. Besides, the EC50 in assay [5] (Homo sapiens, representative curves, 90 pM LT-α, CellTiter-Glo, read-out: EC50, sensitization of PC-3 tumor cells to LT-α (Fig 5b)) came out at 0.019 µM.

With `CC[C@H](C)[C@H](NC(=O)[C@H](C)NC)C(=O)N1CCC[C@H]1C(=O)N[C@@H]1CCCc2ccccc21` [compound 2], the Ki in assay [1] was 1.11 µM; in assay [2] it was 0.09 µM; in assay [3] (setting [7]), 0.04 µM; in assay [4] it was 2.08 µM. The “binding affinity … compared with XIAP” value in assay [3] was “higher affinity binding to cIAP1 and cIAP2 than XIAP”.

In the case of `CC[C@H](NC(=O)[C@H](C)NC)C(=O)N1CCC[C@H]1C(=O)N[C@@H]1CCCc2ccccc21` [compound 3], the Ki in assay [1] is 2.34 µM; in assay [2], 0.06 µM; in assay [3] (setting [7]), 0.06 µM; in assay [4], 5.27 µM. In assay [3], the “binding affinity … compared with XIAP” value is “higher affinity binding to cIAP1 and cIAP2 than XIAP”.

As for `CN[C@@H](C)C(=O)N[C@@H](CC(C)C)C(=O)N1CCC[C@H]1C(=O)N[C@@H]1CCCc2ccccc21` [compound 5], the Ki in assay [1] was 1.33 µM; in assay [2], 0.12 µM; in assay [3] (setting [7]), 0.06 µM; in assay [4], 4.35 µM.

`CN[C@@H](C)C(=O)N[C@@H](CC(=O)OC)C(=O)N1CCC[C@H]1C(=O)N[C@@H]1CCCc2ccccc21` [compound 6]: the Ki is 2.16 µM in assay [1], 0.19 µM in assay [2], 0.08 µM in assay [3] (setting [7]) and 6.38 µM in assay [4].

In the case of `CN[C@@H](C)C(=O)N[C@@H](CC(=O)O)C(=O)N1CCC[C@H]1C(=O)N[C@@H]1CCCc2ccccc21` [compound 7], the Ki was more than 57.2 µM in assay [1], 12.6 µM in assay [2], 9.4 µM in assay [3] (setting [7]) and more than 56.7 µM in assay [4].

On to `CN[C@@H](C)C(=O)N[C@@H](CCC(N)=O)C(=O)N1CCC[C@H]1C(=O)N[C@@H]1CCCc2ccccc21` [compound 8], for which the Ki in assay [1] was 1.26 µM; in assay [2], 0.15 µM; in assay [3] (setting [7]), 0.08 µM; in assay [4], 4.07 µM.

Consider `CN[C@@H](C)C(=O)N[C@H](C(=O)N[C@@H](CCCNC(N)=N[N+](=O)[O-])C(=O)N[C@@H]1CCCc2ccccc21)C(C)C` [compound 9], for which the Ki in assay [1] is 0.81 µM; in assay [2], 0.07 µM; in assay [3] (setting [7]), 0.05 µM; in assay [4], 2.62 µM.

Turning to `CN[C@@H](C)C(=O)N[C@H](C(=O)N[C@@H](CCCNC(=O)OCc1ccccc1)C(=O)N[C@@H]1CCCc2ccccc21)C(C)C` [compound 10], the Ki was 1.41 µM in assay [1], 0.22 µM in assay [2], 0.28 µM in assay [3] (setting [7]) and 2.07 µM in assay [4].

On to `CN[C@@H](C)C(=O)N[C@H](C(=O)N[C@@H](CCC(N)=O)C(=O)N[C@@H]1CCCc2ccccc21)C(C)C` [compound 11], for which the Ki in assay [1] is 3.25 µM; in assay [2], 0.55 µM; in assay [3] (setting [7]), 0.72 µM; in assay [4], 5.5 µM.

For the molecule `CN[C@@H](C)C(=O)N[C@H](C(=O)N[C@@H](CCCCNC(=O)OCc1ccccc1)C(=O)N[C@@H]1CCCc2ccccc21)C(C)C` [compound 12], the Ki in assay [1] is 3.31 µM; in assay [2], 0.5 µM; in assay [3] (setting [7]), 0.2 µM; in assay [4], 5.46 µM.

In the case of `CN[C@@H](C)C(=O)N[C@H](C(=O)N[C@@H](CCCN)C(=O)N[C@@H]1CCCc2ccccc21)C(C)C` [compound 13], the Ki in assay [1] was 1.47 µM; in assay [2] it was 0.07 µM; in assay [3] (setting [7]) it was 0.09 µM; in assay [4], 3.75 µM.

On to `CN[C@@H](C)C(=O)N[C@H](C(=O)N[C@@H](CO)C(=O)N[C@@H]1CCCc2ccccc21)C(C)C` [compound 14], for which the Ki was 3.09 µM in assay [1], 0.3 µM in assay [2], 0.23 µM in assay [3] (setting [7]) and 6.81 µM in assay [4].

For the molecule `CN[C@@H](C)C(=O)N[C@H](C(=O)N[C@@H](C)C(=O)Nc1cccc2ccccc12)C(C)C` [compound 15], in assay [6] (representative curves, CellTiter-Glo, read-out: EC50, sensitization of PC-3 tumor cells to TNF (Fig 5a)), the EC50 was 5.3 µM. The Ki in assay [1] is 8.96 µM; in assay [2] it was 5.1 µM; in assay [3] (setting [7]), 3.23 µM and 3.2 µM; in assay [4], 17.5 µM.

Regarding `CN[C@@H](C)C(=O)N[C@H](C(=O)N1CCC[C@@H]1C(=O)Nc1cccc2ccccc12)C(C)C` [compound 16], the Ki in assay [1] is 1.73 µM; in assay [2], 0.2 µM; in assay [3] (setting [7]) it was 0.18 µM and 0.2 µM; in assay [4], 3.35 µM.

`CC(C)[C@H](NC(=O)[C@H](C)N)C(=O)N[C@@H](C)C(=O)Nc1cccc2ccccc12` [compound 17]: the Ki in assay [1] is 3.77 µM; in assay [2], 0.98 µM; in assay [3] (setting [7]), 1.23 µM; in assay [4], 5.98 µM.

With `CC(C)[C@H](NC(=O)[C@@H](N)CO)C(=O)N[C@@H](C)C(=O)Nc1cccc2ccccc12` [compound 19], the Ki in assay [1] is 8.33 µM; in assay [2], 17.2 µM; in assay [3] (setting [7]) it was 4.37 µM; in assay [4] it was 22.4 µM.

For the molecule `CC[C@H](N)C(=O)N[C@H](C(=O)N[C@@H](C)C(=O)Nc1cccc2ccccc12)C(C)C` [compound 20], the Ki in assay [1] is 24.9 µM; in assay [2] it was 5.29 µM; in assay [3] (setting [7]) it was 4.77 µM; in assay [4], 43.8 µM.

`CC(C)[C@H](NC(=O)[C@H](C)N)C(=O)N[C@@H](CCCNC(=O)OCc1ccccc1)C(=O)Nc1cccc2ccccc12` [compound 21]: the inhibition constant (Ki) in assay [1] is 2.77 µM; in assay [2] it was 0.99 µM; in assay [3] (setting [7]), 0.85 µM; in assay [4], 4.79 µM.

As to `CN[C@@H](C)C(=O)N[C@H](C(=O)N1CCC[C@H]1C(=O)NNc1ccccc1)C(C)C` [compound 22], the Ki in assay [1] is 3.62 µM; in assay [2] it was 0.56 µM; in assay [3] (setting [7]), 0.26 µM; in assay [4], 5.43 µM.

For the molecule `CN[C@@H](C)C(=O)N[C@H](C(=O)N[C@@H](CCCN=C(N)N)C(=O)NNc1ccccc1)C(C)C` [compound 28], the Ki in assay [1] was 4.39 µM; in assay [2] it was 1.42 µM; in assay [3] (setting [7]), 1.97 µM; in assay [4] it was 15.4 µM.

Take `CN[C@@H](C)C(=O)N[C@@H](CCC(=O)O)C(=O)N[C@@H](C)C(=O)NNc1ccccc1` [compound 29]: the Ki in assay [1] is 7.67 µM; in assay [2], 23 µM; in assay [3] (setting [7]), 10.9 µM; in assay [4], 25.1 µM.

For `CN[C@@H](C)C(=O)N[C@H](C(=O)N[C@@H](CCCNC(=O)OCc1ccccc1)C(=O)NNc1ccccc1)C(C)C` [compound 31], the figures for the Ki in assay [2] and in assay [4] were 1.29 µM and 2.93 µM, respectively.

Turning to `CN[C@@H](C)C(=O)N[C@H](C(=O)N[C@@H](CCCN)C(=O)NNc1ccccc1)C(C)C` [compound 32], the Ki is 3.82 µM in assay [1], 2.17 µM in assay [2], 4.01 µM in assay [3] (setting [7]) and 10.9 µM in assay [4].

With `CN[C@@H](C)C(=O)N[C@H](C(=O)N[C@@H](CCCCN)C(=O)NNc1ccccc1)C(C)C` [compound 35], the Ki was 2.18 µM in assay [1], 1.35 µM in assay [2], 2.83 µM in assay [3] (setting [7]) and 5.09 µM in assay [4].

`CC(C)[C@H](NC(=O)[C@H](C)N)C(=O)N1CCC[C@H]1C(=O)NNc1ccccc1` [compound 36]: the Ki in assay [1] is 6.11 µM; in assay [2], 0.57 µM; in assay [3] (setting [7]) it was 0.34 µM; in assay [4] it was 12.9 µM.

For the molecule `CN[C@@H](C)C(=O)N[C@H](C(=O)N1CCC[C@H]1C(=O)Nc1ccc2ccccc2n1)C(C)C` [compound 39], the EC50 in assay [6] (PC-3 cells, cell viability, read-out: TNF EC50) was 0.07 µM; in assay [5] (PC-3 cells, ~90 pM LT-α, cell viability, read-out: LT-α EC50), 0.03 µM. The Ki in assay [3] (setting [7]) is 0.08 µM.

Turning to “AVPIAQK-NH2 [SMAC-7-mer, AVPIAQK, reference compound]”, the Ki was 15.4 µM in assay [1], 0.42 µM in assay [2], 0.45 µM in assay [3] (setting [7]) and 26.4 µM in assay [4].

The Ki is a measure of affinity in units of concentration, obtained from inhibition or displacement. The EC50 is the midpoint of the concentration-response curve.
